Publication PMC11076327, “CXCR2 antagonist navarixin in combination with pembrolizumab in select advanced solid tumors: a phase 2 randomized trial” (Investigational New Drugs, 2024)

What was measured:
CRC = CRC in vivo; ref [13], [14]; cited from earlier work
liver metastases = tested on: liver metastases; parameters: method as in PMID 21035946; conditions: liver metastases in vivo; ref [17]; cited from earlier work
[1] = tested on: pancreatic ductal adenocarcinoma cells; parameters: method as in PMID 30396947, PMID 29749433; conditions: ref [15], [16]; cited from earlier work
[2] = Navarixin pharmacokinetics in combination with pembrolizumab; type: in vivo, human; conditions: for tlast: median (range); for AUC(0-inf) / AUC(0-t) / Cmax: human, plasma, oral, geometric mean (% geometric CV); for Geometric mean trough concentration: all tumor types combined
Source text: Primary endpoints were objective response rate (ORR; proportion of patients with confirmed complete or partial response) by RECIST v1.1 as assessed by the investigator and safety based on the occurrence of dose-limiting toxicities (DLTs), adverse events (AEs), and treatment discontinuations because of AEs. Secondary endpoints included investigator-assessed ORR by immune-related RECIST (iRECIST), investigator-assessed progression-free survival (PFS; time from first dose of study drug until the first documented disease progression or death from any cause) by RECIST v1.1 and iRECIST, overall survival (OS; time from first dose of study drug until death from any cause), pharmacodynamics (assessed via changes in ANC), and PK of navarixin when administered in combination with pembrolizumab.
Blood samples for assessment of ANC were collected predose on day 1 of every cycle; between 6 and 12 hours after dosing on days 1, 3, and 8 of cycle 1; and between 6 and 12 hours after dosing on day 1 of cycle 2. Blood samples for assessment of navarixin pharmacokinetic parameters were collected predose and at 1, 2, 4, 6, and between 8 and 12 hours after dosing on day 1 of cycle 1; predose and between 6 and 12 hours after dosing on days 3 and 8 of cycle 1; predose and at 1, 2, 4, 6, and between 8 and 12 hours after dosing on day 1 of cycle 2; and predose during cycles 3 and 4. […]

[3] = tested on: metastatic castration-resistant prostate cancer (CRPC) preclinical models; parameters: method as in PMID 31801883; conditions: ref [6]; cited from earlier work
[4] = tested on: triple-negative breast cancer cells; parameters: method as in PMID 30396947, PMID 29749433; conditions: ref [15], [16]; cited from earlier work
[5] = tested on: absolute neutrophil count (ANC) and sputum neutrophil count; parameters: method as in PMID 25695403, PMID 22702508; conditions: patients with chronic obstructive pulmonary disease and asthma; ref [10], [11]; cited from earlier work
melanoma = melanoma in vivo; ref [13], [14]; cited from earlier work
[6] = tested on: metastatic triple-negative breast cancer; parameters: method as in PMID 34476645; conditions: in combination with paclitaxel; ref [35]; cited from earlier work
[7] = tested on: previously treated advanced NSCLC; parameters: method as in PMID 31154919; conditions: pembrolizumab monotherapy; previously treated advanced NSCLC cohort; 103/449; ref [24]; cited from earlier work
[8] = tested on: mismatch repair–proficient CRC; parameters: method as in PMID 26028255; conditions: 18 patients with mismatch repair–proficient CRC; ref [21]; cited from earlier work
[9] = tested on: treatment-refractory metastatic CRPC; parameters: method as in PMID 31774688; conditions: pembrolizumab monotherapy, 9/199, ref [22]; cited from earlier work
[10] = CRPC, navarixin 30 mg + pembrolizumab 200 mg, Cycle 1 day 1, n=20
[11] = CRPC, navarixin 30 mg + pembrolizumab 200 mg, Cycle 2 day 1 (steady state), n=18
[12] = CRPC, navarixin 100 mg + pembrolizumab 200 mg, Cycle 1 day 1, n=20
[13] = CRPC, navarixin 100 mg + pembrolizumab 200 mg, Cycle 2 day 1 (steady state), n=17
[14] = MSS CRC, navarixin 30 mg + pembrolizumab 200 mg, Cycle 1 day 1, n=19
[15] = MSS CRC, navarixin 30 mg + pembrolizumab 200 mg, Cycle 2 day 1 (steady state), n=15
[16] = MSS CRC, navarixin 100 mg + pembrolizumab 200 mg, Cycle 1 day 1, n=21
[17] = MSS CRC, navarixin 100 mg + pembrolizumab 200 mg, Cycle 2 day 1 (steady state), n=18
[18] = NSCLC, navarixin 30 mg + pembrolizumab 200 mg, Cycle 1 day 1, n=12
[19] = NSCLC, navarixin 30 mg + pembrolizumab 200 mg, Cycle 2 day 1 (steady state), n=12
[20] = NSCLC, navarixin 100 mg + pembrolizumab 200 mg, Cycle 1 day 1, n=13
[21] = NSCLC, navarixin 100 mg + pembrolizumab 200 mg, Cycle 2 day 1 (steady state), n=11

In the case of CC[C@@H](Nc1c(Nc2cccc(C(=O)N(C)C)c2O)c(=O)c1=O)c1ccc(C)o1 [Navarixin], the “Effect on tumor growth” value (CRC) is listed as “inhibited tumor growth”, the “Effect on apoptosis of malignant cells” value (liver metastases) is listed as “induced apoptosis” and the “Effect on colony formation” value [1] is listed as “inhibited colony formation”. The tlast [2, 10] was 8.00 (7.83–10.00) h, the tlast [2, 11] was 8.01 (6.50–8.70) h and the tlast [2, 12] was 8.00 (7.37–8.08) h. For the same compound, the tlast [2, 13] was 8.00 (5.93–8.17) h, the tlast [2, 14] was 8.0 (7.27–8.33) h and the tlast [2, 15] was 7.93 (6.00–8.17) h. The tlast [2, 16] was 8.00 (7.12–10.02) h, the tlast [2, 17] was 8.00 (7.87–8.13) h and the tlast [2, 18] was 8.00 (7.83–8.25) h. For the same compound, the tlast [2, 19] was 8.00 (7.80–8.08) h, the tlast [2, 20] was 8.00 (6.00–8.07) h and the tlast [2, 21] was 8.00 (6.03–8.08) h. For the same compound, the “AUC0-∞, navarixin 100 mg versus navarixin 30 mg” value ([2]; across all tumor types) was “approximately 2.5 fold”, the AUC(0-inf) ([2]; CRPC, navarixin 30 mg + pembrolizumab 200 mg, Cycle 1 day 1, n=19) was 376 ng·h/mL and the AUC(0-t) [2, 10] was 363 ng·h/mL. It also gave an AUC(0-inf) [2, 11] of 534 ng·h/mL, an AUC(0-t) [2, 11] of 457 ng·h/mL and a Cmax [2, 11] of 191 ng/mL. For the same compound, the AUC(0-inf) ([2]; CRPC, navarixin 100 mg + pembrolizumab 200 mg, Cycle 1 day 1, n=18) was 954 ng·h/mL, the AUC(0-t) [2, 12] was 853 ng·h/mL and the AUC(0-inf) ([2]; CRPC, navarixin 100 mg + pembrolizumab 200 mg, Cycle 2 day 1 (steady state), n=11) was 1340 ng·h/mL. It also gave an AUC(0-t) [2, 13] of 925 ng·h/mL, a Cmax [2, 13] of 272 ng/mL and an AUC(0-inf) ([2]; MSS CRC, navarixin 30 mg + pembrolizumab 200 mg, Cycle 1 day 1, n=17) of 482 ng·h/mL. It also gave an AUC(0-t) [2, 14] of 464 ng·h/mL, a Cmax [2, 14] of 162 ng/mL and an AUC(0-inf) ([2]; MSS CRC, navarixin 30 mg + pembrolizumab 200 mg, Cycle 2 day 1 (steady state), n=10) of 584 ng·h/mL. For the same compound, the AUC(0-t) [2, 15] was 443 ng·h/mL, the Cmax [2, 15] was 147 ng/mL and the AUC(0-inf) ([2]; MSS CRC, navarixin 100 mg + pembrolizumab 200 mg, Cycle 1 day 1, n=16) was 1120 ng·h/mL. The AUC(0-t) [2, 16] was 1070 ng·h/mL, the Cmax [2, 16] was 354 ng/mL and the AUC(0-inf) ([2]; MSS CRC, navarixin 100 mg + pembrolizumab 200 mg, Cycle 2 day 1 (steady state), n=9) was 954 ng·h/mL. It also gave an AUC(0-t) [2, 17] of 928 ng·h/mL, a Cmax [2, 17] of 276 ng/mL and an AUC(0-inf) ([2]; NSCLC, navarixin 30 mg + pembrolizumab 200 mg, Cycle 1 day 1, n=10) of 469 ng·h/mL. It also gave an AUC(0-t) [2, 18] of 427 ng·h/mL, a Cmax [2, 18] of 181 ng/mL and an AUC(0-inf) ([2]; NSCLC, navarixin 30 mg + pembrolizumab 200 mg, Cycle 2 day 1 (steady state), n=10) of 450 ng·h/mL. For the same compound, the AUC(0-t) [2, 19] was 451 ng·h/mL, the Cmax [2, 19] was 179 ng/mL and the AUC(0-inf) ([2]; NSCLC, navarixin 100 mg + pembrolizumab 200 mg, Cycle 1 day 1, n=9) was 1230 ng·h/mL. The AUC(0-t) [2, 20] was 1140 ng·h/mL, the Cmax [2, 20] was 324 ng/mL and the AUC(0-inf) ([2]; NSCLC, navarixin 100 mg + pembrolizumab 200 mg, Cycle 2 day 1 (steady state), n=7) was 1360 ng·h/mL. It also gave an AUC(0-t) [2, 21] of 1080 ng·h/mL, a Cmax [2, 21] of 338 ng/mL and a Cmax ([2]; male, CRPC, navarixin 30 mg + pembrolizumab 200 mg, Cycle 1 day 1, n=20) of 156 ng/mL. The Cmax ([2]; male, CRPC, navarixin 100 mg + pembrolizumab 200 mg, Cycle 1 day 1, n=20) was 298 ng/mL, the “Geometric mean trough concentration” value ([2]; navarixin 30 mg, steady state) was 7.71 ng/mL and the “Geometric mean trough concentration” value ([2]; navarixin 100 mg, steady state) was 14.5 ng/mL. The “Steady-state exposure, 100-mg dose compared with 30-mg dose” value ([2]; steady state) was “approximately 2.5 fold”, the “Effect on neuroendocrine lineage plasticity and enzalutamide resistance” value [3] was “reversed neuroendocrine lineage plasticity and enzalutamide resistance” and the “Effect on colony formation” value [4] was “inhibited colony formation”. For the same compound, the “Effect on neutrophil counts” value [5] was “reductions in absolute neutrophil count (ANC) as well as sputum neutrophil count” and the “Effect on tumor growth” value (melanoma) was “inhibited tumor growth”.

In the case of CC(C)Cc1ccc([C@@H](C)C(=O)NS(C)(=O)=O)cc1 [reparixin], the “Benefit of combination therapy compared with paclitaxel alone” value [6] is listed as “no benefit”.

For pembrolizumab, the ORR [7] is listed as 23%, the ORR [8] is listed as 0% and the ORR [9] is listed as 5%.
